These are literature values, as cited in patent US20240261236A1, “METHODS OF USING NMDA RECEPTOR ANTAGONISTS” (Seelos Therapeutics, Inc., priority 2021, published 2024).

One series has as its target NMDA receptor. The following applies: binds to the NMDA receptor; Moaddel et al. 2013; cited from earlier work.
For series [1] the following is noted: 56 mg or 84 mg doses; Spravato label; cited from earlier work.
The conditions of series [2]: 56 mg or 84 mg dose; Spravato label; cited from earlier work.
The conditions of series [3]: Leung and Baillie 1986; cited from earlier work.

In general, Ki refers to a measure of affinity in units of concentration, obtained from inhibition or displacement. `N[C@]1(c2ccccc2Cl)CCC[C@H](O)C1=O` [(2S,6S)-hydroxynorketamine]: at NMDA receptor, the inhibition constant (Ki) is ~21.2 µM.
On to `N[C@@]1(c2ccccc2Cl)CCC[C@@H](O)C1=O` [(2R,6R)-hydroxynorketamine], for which the Ki on NMDA receptor is > 100 µM.
As to `N[C@]1(c2ccccc2Cl)CCCCC1=O` [(S)-norketamine], the Ki on NMDA receptor was ~2.25 µM.
Turning to `CN[C@]1(c2ccccc2Cl)CCCCC1=O` [(S)-ketamine, (S)-2-(2-chlorophenyl)-2-(methylamino)cyclohexanone], the “patients who developed dissociative changes on the CADSS assessment” value in series [1] is on record as 61%-69%. Further, the “subjects who developed sedation” value in series [2] was 48-61%.
Take `N[C@@]1(c2ccccc2Cl)CCCCC1=O` [(R)-norketamine]: at NMDA receptor, the Ki was ~26.5 µM.
As to `NC1(c2ccccc2Cl)CCCC(O)C1=O` (centres unmarked) [6-hydroxynorketamine], the anesthetic activity entry in series [3] is reported as “no anesthetic or locomotor activity”.
Take `NC1(c2ccccc2Cl)CCCCC1=O` (centres unmarked) [norketamine]: the anesthetic activity result in series [3] is listed as “anesthetic activity”.
